The values that follow come from patent publication US20240417410A1, “TRICYCLIC COMPOUNDS FOR THE TREATMENT OF CANCER” (Hoffmann-La Roche Inc., priority 2023, published 2024).

In one assay the test system is AGS cells (KRAS G12D). As to the kind of experiment: Cell viability assay (Cell Counting Kit-8, 3-day). The class given is cell-based, human. The conditions noted are these: Homo sapiens, 72 h, 72 hrs incubation. An outline of the steps:
(§1)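 After overnight attachment, cells received compounds (0.5% DMSO) for 72 hrs; viability was then quantified with CCK-8, reading OD450 minus OD650, and IC50 values were obtained from a 4-parameter concentration-response fit.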

Assay [1] relates to NCI-H358 cells (KRAS G12C). In words: Cell viability assay (Cell Counting Kit-8, 3-day). It counts as cell-based, human. The conditions noted are these: Homo sapiens, NCI-H358, 72 h, NCI-H358, 72 hrs incubation. In a few lines: as §1
The next assay relates to SW620 cells (KRAS G12V). As to the kind of experiment: Cell viability assay (Cell Counting Kit-8, 3-day). The class given is cell-based, human. The conditions noted are these: Homo sapiens, SW-620; SW620, 72 hrs incubation. In a few lines:
as §1
For orientation: Tetrazolium dyes change colour on reduction, which living cells bring about.

The next assay deals with KRAS G12C-BRAF complex (Homo sapiens (Human), UniProt P01116+P62937, G12C). In words: KRAS-BRAF with CYPA (500 nM) interaction assay (TR-FRET, Example 136). The class given is biochemical. The note with it: KRAS G12C-BRAF disruption. (In general: TR-FRET usually uses a lanthanide donor and a delayed reading to cut background.)
KRAS G12C-BRAF complex, sequence (P01116-2 other isoform, or with tags, fused parts or gaps G12C): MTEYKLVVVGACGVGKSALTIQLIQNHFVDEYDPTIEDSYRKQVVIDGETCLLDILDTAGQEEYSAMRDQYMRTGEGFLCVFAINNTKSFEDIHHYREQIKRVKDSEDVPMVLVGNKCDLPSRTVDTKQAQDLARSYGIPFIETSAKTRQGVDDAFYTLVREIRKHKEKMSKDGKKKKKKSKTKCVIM
KRAS G12C-BRAF complex, sequence (P62937 whole entry): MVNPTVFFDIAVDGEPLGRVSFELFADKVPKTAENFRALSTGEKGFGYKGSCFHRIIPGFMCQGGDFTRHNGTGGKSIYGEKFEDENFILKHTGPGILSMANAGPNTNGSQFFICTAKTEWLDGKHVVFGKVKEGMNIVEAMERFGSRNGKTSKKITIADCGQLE
Assay [2] relates to phosphorylation of ERK, KRAS G12C in NCI-H358 cells. In words: pERK inhibition assay. The class given is cell-based. The conditions noted are these: Homo sapiens, NCI-H358, 4 h. In a few lines:
(§2)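 Cells in RPMI-1640 with 10% FBS were plated overnight (30,000/well H358, 20,000 AGS, 30,000 SW620) and treated 4 h with compounds at 0.5% DMSO. After formaldehyde fixation and methanol permeabilization, pERK was detected by in-cell ELISA with HRP secondary and TMB (OD450); IC50 from 4-parameter fit.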

The test system of assay [3] is phosphorylation of ERK, KRAS G12D in AGS cells. In words: pERK inhibition assay. The class given is cell-based. The note with it: Homo sapiens, AGS, 4 h. An outline of the steps: as §2
For assay [4], the system named is phosphorylation of ERK, KRAS G12V in SW620. In words: pERK inhibition assay. The class given is cell-based. The conditions noted are these: Homo sapiens, SW-620, 4 h, SW620 cells. An outline of the steps:
as §2

What is called IC50 is the concentration needed to halve the response being measured. Low values mean greater potency, high ones weaker potency. On to `CO[C@@H](C)c1ncc(N2CCN3CCCC[C@@H]3C2)cc1-c1c2c3cc(cc4c3n1CCC4)-c1csc(n1)C[C@H](NC(=O)[C@H]1C[C@@H]1c1cccnc1)C(=O)N1CCC[C@H](N1)C(=O)OCC(C)(C)C2` (atropisomer, axis not shown; (M)) [Example 102, (1S,2S)-N-[(7S,13S)-(20M)-20-[5-[(9αR)-1,3,4,6,7,8,9,9a-octahydropyrido[1,2-a]pyrazin-2-yl]-2-[(1S)-1-methoxyethyl]-3-pyridyl]-17,17-dimethyl-8,14-dioxo-15-oxa-4-thia-9,21,30,31-tetrazahexacyclo[23.3.1.1^2,5.1^9,13.0^19,27.0^21,26]hentriaconta-1 (28),2,5 (31),19,25 (29),26-hexaen-7-yl]-2-(3-pyridyl)cyclopropanecarboxamide], for which the IC50 in the assay with AGS cells (KRAS G12D) was found to be 4.9 nM; in assay [1] it was 1.2 nM; with SW620 cells (KRAS G12V), 0.4 nM; at KRAS G12C-BRAF complex, 6.5 nM; in assay [2], 1.1 nM; in assay [3], 2 nM. The IC50 in assay [4] came to 0.7 nM.

As to `CO[C@@H](C)c1ncc(N2CCN3CCCC[C@@H]3C2)cc1-c1c2c3cc(cc4c3n1CCC4)-c1csc(n1)C[C@H](NC(=O)[C@H]1C[C@@H]1c1cncnc1)C(=O)N1CCC[C@H](N1)C(=O)OCC(C)(C)C2` (atropisomer, axis not shown; (M)) [Example 103, (1S,2S)-N-[(7S,13S)-(20M)-20-[5-[(9αR)-1,3,4,6,7,8,9,9a-octahydropyrido[1,2-a]pyrazin-2-yl]-2-[(1S)-1-methoxyethyl]-3-pyridyl]-17,17-dimethyl-8,14-dioxo-15-oxa-4-thia-9,21,30,31-tetrazahexacyclo[23.3.1.1^2,5.1^9,13.0^19,27.0^21,26]hentriaconta-1 (28),2,5 (31),19,25 (29),26-hexaen-7-yl]-2-pyrimidin-5-yl-cyclopropanecarboxamide], the IC50 in the assay with AGS cells (KRAS G12D) was 5.2 nM; in assay [1] it was 1.3 nM; in the assay with SW620 cells (KRAS G12V), 0.4 nM; against KRAS G12C-BRAF complex, 6 nM; in assay [2], 0.7 nM; in assay [3], 2.4 nM. Further, the half-inhibitory concentration (IC50) in assay [4] came out at 0.7 nM.

`CO[C@@H](C)c1ncc(N2CCN3CCOC[C@@H]3C2)cc1-c1c2c3cc(cc4c3n1CCC4)-c1csc(n1)C[C@H](NC(=O)[C@H]1C[C@@H]1c1cccnc1)C(=O)N1CCC[C@H](N1)C(=O)OCC(C)(C)C2` (atropisomer, axis not shown; (M)) [Example 104, (1S,2S)-N-[(7S,13S)-(20M)-20-[5-[(9αS)-3,4,6,7,9,9a-hexahydro-1H-pyrazino[2,1-c][1,4]oxazin-8-yl]-2-[(1S)-1-methoxyethyl]-3-pyridyl]-17,17-dimethyl-8,14-dioxo-15-oxa-4-thia-9,21,30,31-tetrazahexacyclo[23.3.1.1^2,5.1^9,13.0^19,27.0^21,26]hentriaconta-1 (28),2,5 (31),19,25 (29),26-hexaen-7-yl]-2-(3-pyridyl)cyclopropanecarboxamide]: the IC50 in the assay on AGS cells (KRAS G12D) was found to be 3.8 nM; in assay [1], 0.8 nM; in the assay on SW620 cells (KRAS G12V), 0.2 nM; on KRAS G12C-BRAF complex, 9.8 nM; in assay [2], 1 nM; in assay [3] it was 1.6 nM. Further, it took 0.4 nM to reach half-maximal inhibition in assay [4] (IC50).

Regarding `CO[C@@H](C)c1ncc(N2CCN3CCOC[C@@H]3C2)cc1-c1c2c3cc(cc4c3n1CCC4)-c1csc(n1)C[C@H](NC(=O)[C@H]1C[C@@H]1c1cncnc1)C(=O)N1CCC[C@H](N1)C(=O)OCC(C)(C)C2` (atropisomer, axis not shown; (M)) [Example 105, (1S,2S)-N-[(7S,13S)-(20M)-20-[5-[(9αS)-3,4,6,7,9,9a-hexahydro-1H-pyrazino[2,1-c][1,4]oxazin-8-yl]-2-[(1S)-1-methoxyethyl]-3-pyridyl]-17,17-dimethyl-8,14-dioxo-15-oxa-4-thia-9,21,30,31-tetrazahexacyclo[23.3.1.1^2,5.1^9,13.0^19,27.0^21,26]hentriaconta-1 (28),2,5 (31),19,25 (29),26-hexaen-7-yl]-2-pyrimidin-5-yl-cyclopropanecarboxamide], the IC50 came to 6.8 nM in the assay with AGS cells (KRAS G12D); 1.5 nM in assay [1]; 0.6 nM with SW620 cells (KRAS G12V); 13.3 nM against KRAS G12C-BRAF complex; 1.5 nM in assay [2]; 2.2 nM in assay [3]. Moreover, the half-inhibitory concentration (IC50) in assay [4] is 0.4 nM.

As for `CO[C@@H](C)c1ncc(N2CCN(C3CC3)CC2)cc1-c1c2c3cc(cc4c3n1CCO4)-c1csc(n1)C[C@H](NC(=O)[C@H]1[C@H](C)[C@@H]1C)C(=O)N1CCC[C@H](N1)C(=O)OCC(C)(C)C2` (atropisomer, axis not shown; (M)) [Example 106, (1r,2R,3S)-N-[(7S,13S)-(20M)-20-[5-(4-cyclopropylpiperazin-1-yl)-2-[(1S)-1-methoxyethyl]-3-pyridyl]-17,17-dimethyl-8,14-dioxo-15,24-dioxa-4-thia-9,21,30,31-tetrazahexacyclo[23.3.1.1^2,5.1^9,13.0^19,27.0^21,26]hentriaconta-1 (28),2,5 (31),19,25 (29),26-hexaen-7-yl]-2,3-dimethyl-cyclopropanecarboxamide], the IC50 in the assay on AGS cells (KRAS G12D) was determined as 8.7 nM; in assay [1] it was 4.4 nM; with SW620 cells (KRAS G12V), 0.4 nM; against KRAS G12C-BRAF complex, 10.8 nM; in assay [2] it was 1.1 nM; in assay [3] it was 3.1 nM. Half-maximal inhibition in assay [4] (IC50) required 0.4 nM.

With `CO[C@@H](C)c1ncc(N2CCOCC2)cc1-c1c2c3cc(cc4c3n1C[C@@H](O)C4)-c1csc(n1)C[C@H](NC(=O)[C@H]1[C@H](C)[C@@H]1C)C(=O)N1CCC[C@H](N1)C(=O)OCC(C)(C)C2` (atropisomer, axis not shown; (M)) [Example 107, (1r,2R,3S)-N-[(7S,13S,23S)-23-hydroxy-(20M)-20-[2-[(1S)-1-methoxyethyl]-5-morpholino-3-pyridyl]-17,17-dimethyl-8,14-dioxo-15-oxa-4-thia-9,21,30,31-tetrazahexacyclo[23.3.1.1^2,5.1^9,13.0^19,27.0^21,26]hentriaconta-1 (28),2,5 (31),19,25 (29),26-hexaen-7-yl]-2,3-dimethyl-cyclopropanecarboxamide], the half-inhibitory concentration (IC50) in the assay on AGS cells (KRAS G12D) stood at 5.4 nM; in assay [1], 8.4 nM; in the assay on SW620 cells (KRAS G12V), 1.2 nM; against KRAS G12C-BRAF complex it was 47.6 nM; in assay [2], 2.7 nM; in assay [3], 7.4 nM. Also, the IC50 in assay [4] stood at 1.5 nM.

On to `CO[C@@H](C)c1ncc(N2CCNCC2)cc1-c1c2c3cc(cc4c3n1CCC4)-c1csc(n1)C[C@H](NC(=O)[C@H]1[C@H](C)[C@@H]1C)C(=O)N1CCC[C@H](N1)C(=O)OCC(C)(C)C2` (atropisomer, axis not shown; (M)) [Example 108, (1r,2R,3S)-N-[(7S,13S)-(20M)-20-[2-[(1S)-1-methoxyethyl]-5-piperazin-1-yl-3-pyridyl]-17,17-dimethyl-8,14-dioxo-15-oxa-4-thia-9,21,30,31-tetrazahexacyclo[23.3.1.1^2,5.1^9,13.0^19,27.0^21,26]hentriaconta-1 (28),2,5 (31), 19,25 (29),26-hexaen-7-yl]-2,3-dimethyl-cyclopropanecarboxamide], for which the IC50 in the assay with AGS cells (KRAS G12D) came to 1.8 nM; in assay [1], 2.2 nM; in the assay with SW620 cells (KRAS G12V) it was 0.5 nM; on KRAS G12C-BRAF complex, 4.6 nM; in assay [2], 1.8 nM; in assay [3], 3.9 nM. In assay [4], this compound yielded an IC50 of 0.5 nM.

As to `CO[C@@H](C)c1ncc(N2CCN(CCF)CC2)cc1-c1c2c3cc(cc4c3n1CCC4)-c1csc(n1)C[C@H](NC(=O)[C@H]1[C@H](C)[C@@H]1C)C(=O)N1CCC[C@H](N1)C(=O)OCC(C)(C)C2` (atropisomer, axis not shown; (M)) [Example 110, (1r,2R,3S)-N-[(7S,13S)-(20M)-20-[5-[4-(2-fluoroethyl)piperazin-1-yl]-2-[(1S)-1-methoxyethyl]-3-pyridyl]-17,17-dimethyl-8,14-dioxo-15-oxa-4-thia-9,21,30,31-tetrazahexacyclo[23.3.1.1^2,5.1^9,13.0^19,27.0^21,26]hentriaconta-1 (28),2,5 (31), 19,25 (29),26-hexaen-7-yl]-2,3-dimethyl-cyclopropanecarboxamide], the half-maximal inhibitory concentration (IC50) in the assay with AGS cells (KRAS G12D) was 2.6 nM; in assay [1], 1.8 nM; in the assay on SW620 cells (KRAS G12V), 0.4 nM; at KRAS G12C-BRAF complex, 4.9 nM; in assay [2] it was 0.7 nM; in assay [3], 2.6 nM. In addition, it took 0.3 nM to reach half-maximal inhibition in assay [4] (IC50).
